From patent US20050033035A1, “Mutants of igf binding proteins and methods of production of antagonists thereof” (priority 2001, published 2005)
Where two headings read alike, the source gives them in different places.

Legend:
IGFBP-5 = biological target: T1, IGFBP-5 (Homo sapiens, UniProt P24593); assay: Detection of ligand binding by 15N-HSQC NMR titration
T1 construct: His-tag (N); T7-tag (pET-28a construct only) (N); made in house; host or cells: E. coli BL21
Experimental: Ligand binding was detected by acquiring ^15N—HSQC spectra. All NMR spectra were acquired at 300 K on Bruker DRX600 spectrometer. The samples for NMR spectroscopy were concentrated and dialyzed against PBS buffer. Typically, the sample concentration was varied from 0.3 to 1.0 mM. Before measuring, the sample was centrifuged in order to sediment aggregates and other macroscopic particles. 450 μl of the protein solution were mixed with 50 μl of D2O (5-10%) and transferred to an NMR sample tube. The stock solutions of compounds were 100 mM either in water or in perdeuterated DMSO. pH was maintained constant during the whole titration. The binding was monitored by observation of the changes in the ^15N—HSQC spectrum. Dissociation constants were obtained by monitoring the chemical shift changes of the backbone amide of several amino acid residues (Table 9) as a function of ligand concentration. Data were fit using a single binding site model.

[1] = biological target: T2, complex of IGFBP-5 and IGF-I (Homo sapiens, UniProt P24593); assay: Release of IGF-I from the complex with IGFBP-5 measured by 125I-IGF-I binding to IGF-R expressing NIH 3T3 cells; assay type: cell-based; conditions: 10 or 100 nM IGFBP-5, 5 pM 125I-IGF-I, FIG. 7
Experimental: Kalus, W., et al., in EMBO J. 17 (1998) 6558-6572, describe the inhibition of the binding of IGF-I to IGF-R expressing NIH 3T3 cells by formation of an inhibitory complex. This assay was used to investigate the release of IGF-I from the inhibitory complex with IGFBP-5.
NIH 3T3 cells stably expressing human IGF-R were grown in culture dishes in Dulbecco's modified Eagle's medium (DMEM) containing 10% fetal calf serum. Cells were washed carefully with PBS and incubated with 5 ml of 50 mM EDTA in PBS for 45 min. Cells were removed from the plate, washed once with PBS and once with binding buffer (100 mM HEPES pH 7.6, 120 mM NaCl, 5 mM KCl, 1.2 mM MgSO 4, 1 mM EDTA, 10 mM glucose, 15 mM sodium acetate, 1% dialysed BSA), and resuspended in binding buffer to determine the cell number. 5 pM ^125 I-IGF-I (Amersham) was preincubated with either 10 or 100 nM IGFBP-5 alone or in combination with 33 μM of the different compounds 1,2,3,4B and 4C at 4° C. for 1 h. Then 400 μl of the cell suspension corresponding to 2×10^5 cells were added to give a total volume of 500 μl. After 12 h incubation at 4° C., cells were washed with binding buffer (at 4° C.). Free hormone was removed by repeated centrifugation and resuspension in the binding buffer. The 125 I radioactivity bound to the cells was determined in a gamma-counter.

[2] = biological target: T2, complex of IGFBP-5 and IGF-I; assay: Release of IGF-I from the complex with IGFBP-5 measured by IGF-R activation (autophosphorylation) in NIH 3T3 cells; assay type: cell-based; conditions: FIG. 8
Text: Kalus, W., et al., in EMBO J. 17 (1998) 6558-6572, describe the inhibition of the activation and autophosphorylation of the IGF-R by IGF-I in the presence of IGFBP-5. This assay was used to further investigate the release of IGF-I from the inhibitory complex with IGFBP-5 by compound 3. Binding of compound 3 to IGFBP-5 and dissociation of the complex of the binding protein with IGF-I should result in an activation and autophosphorylation of the IGF-R in the presence of IGFBP-5.
Confluent monolayers of the NIH 3T3 cells stably expressing human IGF-R in 3.5 cm dishes were starved in DMEM containing 0.5% dialysed fetal calf serum. After 48 h, cells were incubated without any hormone or with 10 nM IGF-I. Samples were preincubated with 100 nM IGFBP-5 and increasing concentrations of compound 3 from 0 to 50 μM at room temperature for 1 h. After a 10 min stimulation at 37° C., the medium was removed and cells were lysed with 250 μl of lysing buffer (20 mM HEPES pH 7.5, 150 mM NaCl, 10% glycerol, 1% NP-40, 1.5 mM MgCl 2, 1 mM EGTA), 10 mM sodium orthovanadate, and protease inhibitor cocktail Complete (Roche Molecular Biochemicals) for 10 min on ice. […] The protein concentration of the supernatant was determined using the BCA kit from Pierce according to the manufacturer's instructions. […]

IGF-II = IGF-II (Homo sapiens, UniProt P01344); conditions: domain of IGFBP-5 residues 40-92; cited from earlier work
IGF-I = IGF-I (Homo sapiens, UniProt P05019); conditions: domain of IGFBP-5 residues 40-92; cited from earlier work
tumor growth = conditions: 1 mg/dose daily in mice; cited from earlier work
MDA-MB-231 cells = conditions: in vivo in mice; cited from earlier work
MCF-7 cells = conditions: in vitro; cited from earlier work
MDA-MB-435A cells = conditions: in vitro; cited from earlier work
[3] = changes in chemical shift for the residue L81, read-out: KD

T2 sequence (P24593 21-272, one chain of several): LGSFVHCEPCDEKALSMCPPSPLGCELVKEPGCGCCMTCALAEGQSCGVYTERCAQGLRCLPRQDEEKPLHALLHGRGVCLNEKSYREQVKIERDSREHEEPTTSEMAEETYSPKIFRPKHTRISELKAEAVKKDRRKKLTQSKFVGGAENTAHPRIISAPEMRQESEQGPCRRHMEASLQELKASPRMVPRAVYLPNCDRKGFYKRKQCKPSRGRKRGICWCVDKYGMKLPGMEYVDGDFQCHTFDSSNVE
Chain of IGF-I (P05019 49-118 limits assumed): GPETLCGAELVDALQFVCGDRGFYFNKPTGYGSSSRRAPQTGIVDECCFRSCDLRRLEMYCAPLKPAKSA
Chain of IGF-II (P01344 25-91 limits assumed): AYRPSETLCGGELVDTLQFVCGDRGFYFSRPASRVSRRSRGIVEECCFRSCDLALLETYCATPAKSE

O=C(N[C@@H](Cc1ccc(OP(=O)(O)O)cc1)C(=O)O)OCC1c2ccccc2-c2ccccc21 [Compound 2, Nα-FMOC-O-phospho-L-tyrosine]
Kd (IGFBP-5; average over residues, read-out: ligand in DMSO KD): 1.71 ± 0.37 mM
Kd (IGFBP-5; average over residues, read-out: ligand in PBS KD): 2.21 ± 0.4 mM
Kd (IGFBP-5; [3]): 2.78 ± 0.3 mM
Kd (IGFBP-5; residue K91, read-out: ligand in DMSO KD): 2.42 ± 0.18 mM
Kd (IGFBP-5; residue K91, read-out: ligand in PBS KD): 2.12 ± 1.03 mM
Kd (IGFBP-5; residue L73, read-out: ligand in DMSO KD): 1.31 ± 0.17 mM
Kd (IGFBP-5; residue L73, read-out: ligand in PBS KD): 2.93 ± 1.41 mM
Kd (IGFBP-5; residue R87, read-out: ligand in DMSO KD): 1.64 ± 0.12 mM
Kd (IGFBP-5; residue R87, read-out: ligand in PBS KD): 2.36 ± 1 mM
Kd (IGFBP-5; residue S85, read-out: ligand in DMSO KD): 1.38 ± 0.1 mM
Kd (IGFBP-5; residue S85, read-out: ligand in PBS KD): 2.33 ± 0.94 mM
Kd (IGFBP-5; residue Y50, read-out: ligand in DMSO KD): 1.58 ± 0.09 mM
Kd (IGFBP-5; residue Y50, read-out: ligand in PBS KD): 1.82 ± 0.95 mM
Kd (IGFBP-5; residue Y86, read-out: ligand in DMSO KD): 1.9 ± 0.17 mM
Kd (IGFBP-5; residue Y86, read-out: ligand in PBS KD): 1.72 ± 0.99 mM

CC(C)(C)Oc1ccc(C[C@H](NC(=O)OCC2c3ccccc3-c3ccccc32)C(=O)O)cc1 [Compound 2A, Nα-FMOC-O-tert-butyl-L-tyrosine]
Kd (IGFBP-5; [3]): 0.718 ± 0.079 mM

O=C(N[C@@H](Cc1ccccc1)C(=O)O)OCC1c2ccccc2-c2ccccc21 [Compound 2B, Nα-FMOC-L-phenylalanine]
Kd (IGFBP-5; [3]): 1.08 ± 0.507 mM

O=C(Nc1ccc(S(=O)(=O)F)cc1)c1cc(N=Nc2cc(Cl)ccc2Cl)c2ccccc2c1O [Compound 3, 4-(2,5-Dichlorophenylazo)-4′fluorosulfonyl-1-hydroxy-2-naphthanilide]
release of IGF-I from the complex and binding of IGF-I to IGF-R expressing cells ([1]; 33 μM compound): release of IGF-I from the complex
autophosphorylation of IGF-R in presence of inactive complex of IGFBP-5 and IGF-I ([2]; 50 uM compound 3, 100 nM IGFBP-5, 10 nM IGF-I): increased autophosphorylation of the receptor

IGFBP-5: human insulin-like growth factor binding protein 5, SwissProt P 24593
binding of labeled IGF-I to NIH 3T3 cells [1]: inhibited
autophosphorylation of IGF-R by IGF-I ([2]; 100 nM IGFBP-5, 10 nM IGF-I): inhibited

mini-IGFBP-5: domain of IGFBP-5 between residues 40-92 (GSALAEGQSCGVYTERCAQGLRCLPRQDEEKPLHALLHGRGVCLNEKSYREQVKI)
Kd (IGF-II): 6 nM
Kd (IGF-I): 37 nM

B1: pegylated IGFBP-1: IGFBP-1 covalently coupled to polyethylene glycol (van den Berg) (conjugate, UniProt P08833 26-259, looked up)
Insulin-like growth …: APWQCAPCSAEKLALCPPVSASCSEVTRSAGCGCCPMCALPLGAACGVATARCARGLSCRALPGEQQPLHALTRGQGACVQESDASAPHAAEAGSPESPESTEITEEELLDNFHLMAPSEEDHSILWDAISTYDGSKALHVTNIKKWKEPCRIELYRVVESLAKAQETSGEEISKFYLPNCNKNGFYHSRQCETSMDGEAGLCWCVYPWNGKRIPGSPEIRGDPNCQIYFNVQN
modifications: PEG
inhibition of tumor growth (response) (tumor growth): only partial response

B2: IGFBP-1: human insulin-like growth factor binding protein 1, SwissProt P 08833 (protein, UniProt P08833 26-259, looked up)
Insulin-like growth …: APWQCAPCSAEKLALCPPVSASCSEVTRSAGCGCCPMCALPLGAACGVATARCARGLSCRALPGEQQPLHALTRGQGACVQESDASAPHAAEAGSPESPESTEITEEELLDNFHLMAPSEEDHSILWDAISTYDGSKALHVTNIKKWKEPCRIELYRVVESLAKAQETSGEEISKFYLPNCNKNGFYHSRQCETSMDGEAGLCWCVYPWNGKRIPGSPEIRGDPNCQIYFNVQN
growth of tumors formed MDA-MB-231 cells (MDA-MB-231 cells): inhibits the growth
growth of MCF-7 cells (MCF-7 cells): inhibits the growth
growth of MDA-MB-435A cells (MDA-MB-435A cells): inhibits the growth
